Test results reported in paper PMC3243944 (Biopolymers, 2011).
Where no end group is shown, it is not given here.

How the values were obtained:
[1] = test system: 5-helix bundle (5HB) protein construct derived from the hRSV fusion (F) protein; details: protein-based (5HB) FP screening assay; cited from earlier work
[2] = Solubility in aqueous buffer; assay type: physicochemical

For ISQVNEKINQSLAFIRKSDE [C20], the “Binding affinity to the 5HB” value [1] is listed as “low micromolar” and the solubility [2] is listed as less than 2000 µg/mL.
